Data published in publication PMC12374861, “Synthetic Peptides Suppress Nervous Necrosis Virus Absorption and Improve Survival Rates in European Sea Bass” (Marine Biotechnology (New York, N.y.), 2025).
Ends that are not written are not given here.

Key:
E-11 cells = experiment: MTT cytotoxicity test on E-11 cells; type: cell-based; conditions: 24 h at 25 °C, mean of n = 3, control = 100.0
Experimental: Synthetic peptides cytotoxicity on E − 11 cells was assessed using the MTT (Sigma) test with serial peptide dilutions (1000–4 µg/mL in L − 15 medium; n = 3; 24 h at 25 °C) as elsewhere (Cervera et al. [2024c]). Absorbance was measured at 570 nm (BMG Labtech); blanks lacked cells. Cell viability was calculated as the OD ratio of treated to untreated cells × 100, normalized at 690 nm.
Supplementary data S4: Cell viability (%) of E-11 cells after incubation with the synthetic peptides for 24 h. Data represent the mean ± SEM (n=3).

SJNNV = type: cell-based, striped jack nervous necrosis virus (strain SJNag97); conditions: virus (MOI 0.01) incubated with 500 μg/mL peptide for 15 min at 25 °C, titrated in E-11 cells; control virus + PBS; representative of two independent assays; Fig. 2B
Experimental: (§1) Parental RGNNV (strain It/411/96), SJNNV (strain SJNag97), and reassortant isolates (RGNNV/SJNNV, 367.2.2005; SJNNV/RGNNV, 389/I96) were used. Viruses were propagated in E − 11 cells cultured in L-15 Leibovitz medium (BioWest) supplemented with 5% FBS, 2 mM L-glutamine, and 100 IU/mL penicillin/streptomycin (Thermo Fisher Scientific) at 25 °C. Infected monolayers were incubated at 25 °C until extensive cytopathic effect (CPE) developed. Supernatants were then harvested, centrifuged, and titrated in triplicate using the end-point dilution method, expressed as TCID₅₀/mL (Reed and Müench [1938]).
(§2) For in vitro antiviral assays, viral cultures (MOI 0.01) from parental and reassortant strains were incubated with peptides (single or combined) using a non-lethal concentration previously tested (500 μg/mL; León et al. [2020]), for 15 min at 25 °C with gentle agitation. Controls were virus samples incubated with PBS (100% viral activity). Treated samples were titrated as previously. After medium removal, cells were exposed to ten-fold viral dilutions in 2% FBS. CPE was monitored daily for 10 days, and viral titres were calculated as TCID₅₀/mL (Reed and Müench [1938]) and expressed as viral titre or percent inhibition relative to controls.
Fig. 2 Designed peptides, single or combined, reduce the NNV absorption in vitro. NNV parental or reassortant genotypes were incubated with 500 μg/mL of the synthetic peptides for 15 min. Then, the viruses were titrated in the E − 11 cell line. Control samples consisted on virus incubated with the same amount of phosphate buffer saline. (A) Viral titer (TCID50/mL) and (B) % of virus inhibition with respect to the controls are represented. Data are representative of two independent assays. […] Each bar was matched to a substance by its colour and by the order of the legend.

RGNNV [1] = experiment: RGNNV adsorption efficiency, progeny production and replication kinetics in P4 pre-treated E-11 cells; type: cell-based, red-spotted grouper nervous necrosis virus
Experimental: Based on in vivo results (see below), the P4 effect on RGNNV replication was further assessed by analysing viral adsorption efficiency and progeny production, as previously (Valero et al. [2021b]) with slight modifications. Intracellular and extracellular viral kinetics were examined using semi-confluent E − 11 monolayers in 12-well plates (Sarstedt) treated with P4 (500 µg/mL) for 24 h; untreated cells served as controls. After treatment, supernatants were removed, cells washed thrice, and infected with RGNNV (MOI 0.01) for 45 min. Residual inoculum was collected, and monolayers washed and overlaid with L-15 for incubation at 25 °C with daily CPE monitoring. Supernatants were collected at 8, 12, 24, and 48 h post-infection (hpi); cells were washed, scraped and stored. For extracellular kinetics, supernatants were collected until 168 hpi. All samples were clarified by centrifugation (2000 × g, 10 min). Titrations were performed for: (i) total inoculated virus (TIV), (ii) non-attached virus (NAV), and (iii) viral progeny (VP). Assays were conducted in triplicate.
Formulas used for impact of synthetic peptides on RGNNV replication in vitro assay are the following: • AbsorbedvirusAV=TIV-NAV • AdsorptionefficacyAE=AV/TIV×100 • Productionrate(PR)=VP/AV • Relativeratioofproduction(RRP)=PRP4+RGNNV/PRRGNNV
Fig. 3 The pre-treatment with P4 synthetic peptide partially disrupts the replication of RGNNV in vitro. (A) Intracellular replication kinetics; (B) Viral production in cell supernatants; and (C, D) Genome synthesis in cell lysates by means of transcriptional levels of rdrp (C) and cp (D) genes. Monolayers of E-11 were incubated with 500 µg/mL of P4 or untreated for 24 h and then infected with […] nervous necrosis virus (RGNNV) (n = 3). Supernatants and cell lysates were collected at 8, 12, 24, 48 h post-infection (hpi). Additionally, supernatants were sampled at 168 hpi for extracellular replication kinetic analysis. Infectious titers were determined by the end-point titration method (Reed and Müench [1938]) and expressed as mean Log10 TCID50/mL ± standard error of the mean (SEM). Relative expression was presented as the mean ± SEM (n = 3). Asterisks indicate significant differences among groups according to the Student-t test (p < 0.05)

RGNNV [2] = experiment: RGNNV in vivo bath challenge of European sea bass with peptide injection after infection; design: species or system European sea bass (Dicentrarchus labrax); conditions: for Clinical signs of VER disease, severity score: four-rank scale 1-4, sea bass, RGNNV bath challenge, 1 µg peptide/g i.m., Fig. 4B; for Relative percent survival (RPS): juvenile sea bass, bath infection 3.16 × 10^4 TCID₅₀ RGNNV/mL for 2 h, then intramuscular injection 1 µg peptide/g, 23 dpi, infected PBS group 63.6% survival; for RGNNV cp gene expression in the brain / RGNNV rdrp gene expression in the brain: qPCR relative to ef1a, 2 dpi, n = 6, 1 µg peptide/g i.m. after RGNNV bath challenge; for RGNNV cp gene expression in the brain: Fig. 5A; for RGNNV rdrp gene expression in the brain: Fig. 5B
Experimental: RGNNV In vivo Challenge of European Sea Bass
A total of 375 sea bass were randomly assigned to eight experimental groups (in duplicate) and acclimated for 15 days. Seven groups were infected by immersion (10 L; 3.16 × 10^4 TCID₅₀ RGNNV/mL; 2 h), while a mock-infected control received conditioned medium. […] Combinations were selected according to the results obtained in the competitive in vitro assay against RGNNV (see below). Disease signs and mortalities were monitored daily for 23 days post-infection (dpi) using a four-rank scale (Valero et al. [2021a]). Fish (n = 6/group/time-point) were sampled at 2 and 23 dpi, euthanized with clove oil, bled, and weighed. Brain, NNV target tissue, and head-kidney, major hematopoietic tissue in fish, were dissected, frozen in TRIzol (Life Technologies), and stored at − 80 °C.
For viral load analysis, total RNA was extracted from sea bass brain and head-kidney using TRIzol (Life Technologies) and from E − 11 cells using the GenJET RNA Purification Kit (Thermo Fisher Scientific), following manufacturer protocols. One microgram of RNA was DNAse I-treated (1 U/µL; Thermo Scientific), and cDNA was synthesized using Superscript IV Reverse Transcriptase (Invitrogen). qPCR was performed on a QuantStudio 5 Flex (Applied Biosystems) to quantify cp, rdrp and mx genes using PowerUp SYBR Green reagents (Applied Biosystems). The protocol included a 95 °C hold, then 40 cycles (95 °C; 15 s) and 60 °C for 1 min. Relative expression was calculated using the 2^⁻ΔCt method (Livak and Schmittgen [2001]), with ef1a as the endogenous control. Primers (Supplementary Data S2) were validated by melting curve analysis and negative controls.
Fish mortality was analysed using Kaplan–Meier survival curves with log-rank (Mantel–Cox) tests for significance. Relative gene expression was evaluated by one-way ANOVA (p ≤ 0.05) followed by Tukey’s test. Viral kinetics were compared between P4-treated and untreated groups using Student’s t-test (p ≤ 0.05) at specific time points. All analyses were performed with IBM SPSS Statistics 20.
Fig. 4 Therapeutic administration of synthetic peptides improves survival and symptomatology in […] (RGNNV)-infected European sea bass juveniles. […] A mock-infected group was treated twice with only PBS. (A) Kaplan–Meier survival curves; (B) Heat-map representing the cumulated number of fish showing clinical signs of VER disease attending to their severity: (1) changes of the color of the skin, slower rhythm of swimming and/or slower reaction to external stimuli as feeding; (2) alterations in the swimming balance and/or erratic swimming spasms; (3) continuous erratic swimming; and (4) complete incapacity to keep balance, swim and/or move without external stimuli. VER, viral encephalopathy and retinopathy
Fig. 5 Therapeutic administration of synthetic peptides decreased viral loads in the brain without additional mx gene regulation in the sea bass juveniles head-kidney infected with red-spotted grouper nervous necrosis virus (RGNNV). […] A mock-infected group was treated twice with only PBS. (A–C) Transcription levels of RGNNV cp (A) and rdrp (B) genes in the brain and (C) mx gene in the head-kidney. Data represent the relative gene expression mean ± SEM (n = 6). Different letters indicate significant differences among groups according to the ANOVA (p < 0.05)

RGNNV/SJNNV reassortant = experiment: In vitro antiviral (competition) assay: virus incubated with peptide, then titrated in E-11 cells; type: cell-based, RGNNV/SJNNV reassortant (367.2.2005); conditions: virus (MOI 0.01) incubated with 500 μg/mL peptide for 15 min at 25 °C, control virus + PBS, representative of two independent assays, Fig. 2B
Experimental: as §1, §2
Fig. 2 Designed peptides, single or combined, reduce the NNV absorption in vitro. […]

Substance	Viability (%) of E-11 cells, mean (E-11 cells; peptide 0.00411 mg/mL) [%]	Viability (%) of E-11 cells, mean (E-11 cells; peptide 0.01234 mg/mL) [%]	Viability (%) of E-11 cells, mean (E-11 cells; peptide 0.03704 mg/mL) [%]	Viability (%) of E-11 cells, mean (E-11 cells; peptide 0.11111 mg/mL) [%]	Viability (%) of E-11 cells, mean (E-11 cells; peptide 0.33333 mg/mL) [%]	Viability (%) of E-11 cells, mean (E-11 cells; peptide 1.00000 mg/mL) [%]	% of virus inhibition with respect to the controls, SJNNV (SJNNV) [%]	AE, adsorption efficiency (RGNNV [1]; AE = AV/TIV × 100, E-11 cells pre-treated with P4 500 µg/mL 24 h, untreated cells 99.05%) [%]	Intracellular viral replication titre at 48 h post-infection (RGNNV [1]; E-11 cells pre-treated with P4 500 µg/mL 24 h, RGNNV, cell lysates, 48 hpi, untreated cells 2.40 × 10⁶, n = 3, Fig. 3A)	Viral release in cell supernatants at 48 h post-infection (RGNNV [1]; E-11 cells pre-treated with P4 500 µg/mL 24 h, RGNNV, supernatants, 48 hpi, untreated cells 6.77 × 10^4, n = 3, Fig. 3B)	Viral progeny (VP) (RGNNV [1]; E-11 cells pre-treated with P4 500 µg/mL 24 h, then RGNNV MOI 0.01, untreated cells 1.40 × 10^8)	Attached virus (AV), Log ± SEM (RGNNV [1]; E-11 cells pre-treated with P4 500 µg/mL for 24 h, then RGNNV MOI 0.01 for 45 min, triplicate)	Attached virus (AV) (RGNNV [1]; E-11 cells pre-treated with P4 500 µg/mL for 24 h, washed, infected with RGNNV MOI 0.01 for 45 min, AV = TIV − NAV, triplicate, untreated cells 9.20 × 10^5 in Table 2)	PR, production rate (RGNNV [1]; PR = VP/AV, P4 pre-treated E-11 cells, untreated cells 151.57)	RRP, relative ratio of production (RGNNV [1]; RRP = PR(P4+RGNNV)/PR(RGNNV))	Clinical signs of VER disease, severity score (RGNNV [2])	Relative percent survival (RPS) (RGNNV [2]) [%]	RGNNV cp gene expression in the brain (RGNNV [2])	RGNNV rdrp gene expression in the brain (RGNNV [2])	% of virus inhibition with respect to the controls, RGNNV/SJNNV (RGNNV/SJNNV reassortant) [%]
ALQATRGAVVAKWW-NH2 [Peptide P5]	126.6	116.7	116.4	122.7	104.3	115.8														
LLWTSSGKEQR-NH2 [Peptide P6]	157.5	139.2	138.9	152.9	146.5	128.1	90													
PDPTDNDHTFD-NH2 [Peptide P4]	87.4	102.6	92.4	110.6	100.5	106.4		98.99	1.64 × 10^4 TCID₅₀/mL	3.36 × 10^3 TCID₅₀/mL	2.46 × 10^7 TCID50/mL	5.96 ± 0.005	9.21 × 10^5 TCID50/mL	26.76	0.18	1	81.3	lowered	lowered	
PRLGHAARIFQRYA-NH2 [Peptide P3]	89.4	93.2	96.3	89.8	90.9	101.7	90										62.5	lowered	lowered	96.84
SVRLSVPSLETPEETTA-NH2 [Peptide P7]	149.6	125.7	138.9	116.6	119.8	131.6	90									≤ 4	68.8		effectively blocked	
TTKAANPQPRRRANNRRRS-NH2 [Peptide P1]	123.5	129.9	100.1	96.6	109.3	91.5	90													
